The text below walks through data of patent EP0057998B1, “Alicyclic compounds, their production and use” (Takeda Chemical Industries, Ltd., priority 1981, dated 1982).

Assay [1] concerns the target Angiotensin I Converting Enzyme (ACE) (Homo sapiens, UniProt P12821). Briefly: Inhibition of Angiotensin I Converting Enzyme (ACE), HHL substrate, hippuric acid colorimetry (modified Cushman method). It is filed as biochemical. The conditions noted are these: 37°C for one hour, pH 8.3, read-out: Inhibitory Activity on ACE (%); for inhibition at 1 µM: Concentration 1 μM; for inhibition at 10 µM: Concentration 10 μM. The procedure:
Inhibitions of Angiotensin I Converting Enzyme (ACE) by the Compounds of this Invention. The experiment was conducted in accordance with a modification of the method described by Cushman et al. [Biochemical Pharmacology, Vol. 20, 1637 (1971)]. That is, using hippuryl-L-histidyl-L-leucine (HHL) as the substrate, the ACE inhibitory activity was determined in terms of percent inhibition of the amount of hippuric acid produced by ACE when the present compound was added. A solution of the compound of the present invention dissolved in a 0.02 to 0.5% dimethyl sulfoxide-1 00 mM potassium phosphate buffer solution (pH 8.3, containing 300 mM sodium chloride) was added to 100 µl of ACE (protein concentration, 20 mg/ml) and 100 µl of -1.25 mM HHL. In this experiment, a potassium phosphate buffer solution containing dimethyl sulfoxide at a concentration equal to that of the test solution was used as a control. After incubating the solution at 37°C for one hour, 150 µl of 1 N hydrochloric acid was added to the solution to terminate the reaction. After 1 ml of ethyl acetate was added, the solution was centrifuged at 3000 r.p.m. for 10 minutes. A 0.5 ml aliquot was separated from the ethyl acetate layer and dried at a temperature below 50°C under nitrogen gas streams. The residue was mixed with 5 ml of 1 M aqueous sodium chloride and the mixture was subjected to colorimetry at a wavelength of 228 nm.

The test system of assay [2] is Hypertensive Reaction by Angiotensin I. Briefly: Effect against hypertensive activity of angiotensin I in rats after oral administration. It is filed as in vivo, Male rats (Sprague-Dawley). The conditions noted are these: 13.8 µM/kg orally, angiotensin I 300 ng/kg i.v., corrected by angiotensin II reaction; for Percent Inhibition (%) against Hypertensive Reaction by Angiotensin I After 20 min.: 20 min after administration; for Percent Inhibition (%) against Hypertensive Reaction by Angiotensin I After 60 min.: 60 min after administration; for Percent Inhibition (%) against Hypertensive Reaction by Angiotensin I After 120 min.: 120 min after administration. The method, then:
Effect of Present Compounds against Hypertensive Activity of Angiotensin I. Male rats (Sprague-Dawley) weighing 250 g to 350 g which were fed under free access to drinking water and feeds were used as experimental animals. The rats were anesthetized with intraperitoneal administration of pentobarbital sodium (50 mg/kg) on the day before the test day and a polyethylene tube was inserted into each of the femoral artery for measurement of blood pressure and the femoral vein for injection of angiotensin I and II, and then the tubes were fixed. […] Then, 13.8 µM/kg of the compound of this invention was administered orally as an aqueous solution or an aqueous gum arabic suspension, and 20, 60 and 120 minutes after the administration, angiotensin I and II were injected repeatedly to trace hypertensive reactions. In calculating the percent inhibition to the hypertensive activity of angiotensin I, the percent inhibitory value was corrected based on the variation with time in the hypertensive reaction by angiotensin II.

Molecules are shown by their SMILES. Where a name gives a salt, the structure may show the parent alone.

Sequence of Angiotensin I Converting Enzyme (ACE) (P12821 30-1306, species assumed): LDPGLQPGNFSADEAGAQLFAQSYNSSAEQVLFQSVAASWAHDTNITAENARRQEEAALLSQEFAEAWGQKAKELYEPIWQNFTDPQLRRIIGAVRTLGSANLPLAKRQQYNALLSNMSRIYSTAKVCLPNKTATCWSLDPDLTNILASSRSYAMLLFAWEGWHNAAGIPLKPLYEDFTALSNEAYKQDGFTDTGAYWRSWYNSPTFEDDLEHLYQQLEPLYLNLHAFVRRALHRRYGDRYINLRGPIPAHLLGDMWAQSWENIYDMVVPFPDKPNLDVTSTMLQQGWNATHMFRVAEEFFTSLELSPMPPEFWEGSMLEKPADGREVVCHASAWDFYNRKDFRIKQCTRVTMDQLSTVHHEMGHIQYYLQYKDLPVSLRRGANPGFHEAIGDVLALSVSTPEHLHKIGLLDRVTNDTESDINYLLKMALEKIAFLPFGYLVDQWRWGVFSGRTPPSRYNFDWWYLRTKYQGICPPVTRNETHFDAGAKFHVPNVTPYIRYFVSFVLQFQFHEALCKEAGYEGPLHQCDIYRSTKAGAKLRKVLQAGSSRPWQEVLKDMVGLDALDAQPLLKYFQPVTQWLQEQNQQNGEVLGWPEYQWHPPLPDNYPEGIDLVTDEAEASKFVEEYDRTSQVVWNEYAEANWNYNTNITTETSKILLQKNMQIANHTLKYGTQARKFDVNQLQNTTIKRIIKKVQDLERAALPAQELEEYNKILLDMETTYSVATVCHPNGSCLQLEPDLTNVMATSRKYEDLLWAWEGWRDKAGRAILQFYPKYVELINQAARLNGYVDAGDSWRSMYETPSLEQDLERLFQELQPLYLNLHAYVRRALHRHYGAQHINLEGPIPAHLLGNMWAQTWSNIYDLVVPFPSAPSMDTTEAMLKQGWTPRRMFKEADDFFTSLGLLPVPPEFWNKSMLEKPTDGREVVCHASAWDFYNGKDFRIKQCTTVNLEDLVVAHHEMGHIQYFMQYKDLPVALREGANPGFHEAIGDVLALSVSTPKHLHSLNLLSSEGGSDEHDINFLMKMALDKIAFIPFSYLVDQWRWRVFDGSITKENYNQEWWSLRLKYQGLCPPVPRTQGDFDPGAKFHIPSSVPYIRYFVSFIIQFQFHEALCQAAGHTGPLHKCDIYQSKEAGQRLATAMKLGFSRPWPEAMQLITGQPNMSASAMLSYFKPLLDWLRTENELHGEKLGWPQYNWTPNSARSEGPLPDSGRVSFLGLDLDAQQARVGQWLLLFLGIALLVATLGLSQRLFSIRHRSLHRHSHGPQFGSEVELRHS

For the compound `CCOC(=O)C(CCc1ccccc1)N[C@@H](C)C(=O)N(CC(=O)O)C1CCCC1.Cl` (stereo partly drawn) [Example 1, N-(1-ethoxycarbonyl-3-phenylpropyl)-L-alanyl-N-cyclopentylglycine hydrochloride], in assay [1], the inhibition at 1 µM amounted to 84% and the inhibition at 10 µM was 96%. In assay [2], the “Percent Inhibition (%) against Hypertensive Reaction by Angiotensin I After 20 min.” value was 92%, the “Percent Inhibition (%) against Hypertensive Reaction by Angiotensin I After 60 min.” value is on record as 82% and the “Percent Inhibition (%) against Hypertensive Reaction by Angiotensin I After 120 min.” value worked out at 82%.
With `CCOC(=O)C(CCc1ccccc1)N[C@@H](C)C(=O)N(CC(=O)O)C1CCCCC1.Cl` (stereo partly drawn) [Example 2, N-(1-ethoxycarbonyl-3-phenylpropyl)-L-alanyl-N-cyclohexylglycine hydrochloride], in assay [1], the inhibition at 1 µM came to 64% and the inhibition at 10 µM is 90%. Moreover, in assay [2], the “Percent Inhibition (%) against Hypertensive Reaction by Angiotensin I After 20 min.” value is recorded as 82%, the “Percent Inhibition (%) against Hypertensive Reaction by Angiotensin I After 60 min.” value stood at 82% and the “Percent Inhibition (%) against Hypertensive Reaction by Angiotensin I After 120 min.” value came to 77%.
Turning to `CCCCOC(=O)C(CCc1ccccc1)N[C@@H](C)C(=O)N(CC(=O)O)C1CCCCCC1` (stereo partly drawn) [Example 7, N-(1-butoxycarbonyl-3-phenylpropyl)-L-alanyl-N-cycloheptylglycine hydrochloride], in assay [1], the inhibition at 1 µM was found to be 88% and the inhibition at 10 µM was determined as 98%.
As for `CCCCOC(=O)[C@H](CCc1ccccc1)N[C@@H](C)C(=O)N(CC(=O)O)C1CCCC1.Cl` [Example 12, N-[1-(S)-butoxycarbonyl-3-phenylpropyl]-L-alanyl-N-cyclopentylglycine hydrochloride], in assay [2], the “Percent Inhibition (%) against Hypertensive Reaction by Angiotensin I After 20 min.” value stood at 95%, the “Percent Inhibition (%) against Hypertensive Reaction by Angiotensin I After 60 min.” value is on record as 85% and the “Percent Inhibition (%) against Hypertensive Reaction by Angiotensin I After 120 min.” value was found to be 76%.
Take `C[C@H](NC(CCc1ccccc1)C(=O)O)C(=O)N(CC(=O)O)C1CCCC1` (stereo partly drawn) [Example 13, N-(1-carboxy-3-phenylpropyl)-L-alanyl-N-cyclopentylglycine]: in assay [1], the inhibition at 1 µM was found to be 93% and the inhibition at 10 µM came out at 100%. Further, in assay [2], the “Percent Inhibition (%) against Hypertensive Reaction by Angiotensin I After 20 min.” value is recorded as 58%, the “Percent Inhibition (%) against Hypertensive Reaction by Angiotensin I After 60 min.” value is 64% and the “Percent Inhibition (%) against Hypertensive Reaction by Angiotensin I After 120 min.” value is given as 62%.
Consider `CCOC(=O)C(CCc1ccccc1)NC(C)C(=O)N(CC(=O)O)C1CC2CCC1C2` [Example 17, N-[1-(2)-ethoxycarbonyl-3-phenylpropyl]-L-alanyl-N-(2-exonorbornyl)glycine hydrobromide], for which, in assay [1], the inhibition at 1 µM was 78% and the inhibition at 10 µM was 99%.
For `CCOC(=O)C(CCc1ccccc1)N[C@@H](C)C(=O)N(CC(=O)O)C1C2CC3CC(C2)CC1C3` (stereo partly drawn) [Example 19, N-(1-ethoxycarbonyl-3-phenylpropyl)-L-alanyl-N-(2-adamantyl)glycine hydrobromide], in assay [1], the inhibition at 1 µM was determined as 73% and the inhibition at 10 µM was 93%.
